Laboratory results as given in ChEMBL document CHEMBL6109152, “Harnessing the SPOP E3 Ubiquitin Ligase via a Bridged Proteolysis Targeting Chimera (PROTAC) Strategy for Targeted Protein Degradation” (J Med Chem, 2025).
Activity calls are given as the source filed them. No cut-off for these calls is given here.

Tests used:
[1] = molecular target: T1, Speckle-type POZ protein-Bromodomain-containing protein 4 (Homo sapiens, UniProt O60885+O43791); test: PROTAC activity at SPOP/BRD4-S in human HT-29 cells assessed as induction of BRD4 short isoform degradation at 0.5 to 5 uM incubated for 24 hrs by Western blotting analysis; type: cell-based; settings: dose 0.5-5 µM
[2] = molecular target: T1, Speckle-type POZ protein-Bromodomain-containing protein 4; test: PROTAC activity at SPOP/BRD4-L in human HT-29 cells assessed as induction of BRD4 long isoform degradation at 0.5 to 5 uM incubated for 24 hrs by Western blotting analysis; type: cell-based; settings: dose 0.5-5 µM
HEK293T = test: Binding affinity to BRD4-S/GLP/SPOP in HEK293T cells assessed as compound-BRD4-GLP-SPOP quaternary complex formation at 20 to 100 uM incubated for 1 hrs by pulldown based Western blot analysis; type: cell-based; settings: Homo sapiens, dose 20-100 µM
HT-29 [3] = test: Binding affinity to BRD4-S/GLP/SPOP in human HT-29 cells assessed as compound-BRD4-GLP-SPOP quaternary complex formation at 20 to 100 uM incubated for 1 hrs by pulldown based Western blot analysis; type: cell-based; settings: dose 20-100 µM
HT-29 [4] = test: Effect on c-MYC mRNA expression level in human HT-29 cells at 5 uM incubated for 24 hrs by RT-qPCR analysis; type: functional, cell-based
HT-29 [5] = test: Effect on BRD4 short isoform mRNA expression level in human HT-29 cells at 5 uM incubated for 24 hrs by RT-qPCR analysis; type: functional, cell-based
HT-29 [6] = test: Effect on BRD3 mRNA expression level in human HT-29 cells at 5 uM incubated for 24 hrs by RT-qPCR analysis; type: functional, cell-based
[7] = molecular target: T1, Speckle-type POZ protein-Bromodomain-containing protein 4; test: PROTAC activity at SPOP/BRD4-S in human HT-29 cells assessed as induction of BRD4 short isoform degradation at 5 uM incubated for 24 hrs by Western blotting analysis relative to control; type: cell-based
HT-29 [8] = test: Effect on BRD4 long isoform mRNA expression level in human HT-29 cells at 5 uM incubated for 24 hrs by RT-qPCR analysis; type: functional, cell-based
HT-29 [9] = test: Antiproliferative activity against human HT-29 cells assessed as reduction in cell growth up to 10 uM incubated for 3 days by WST-8 reagent based assay; type: functional; settings: time 3.0 day
HT-29 [10] = test: Effect on BRD2 mRNA expression level in human HT-29 cells at 5 uM incubated for 24 hrs by RT-qPCR analysis; type: functional, cell-based

T1 sequence (O43791 whole entry, looked up, other chains not shown, canonical isoform): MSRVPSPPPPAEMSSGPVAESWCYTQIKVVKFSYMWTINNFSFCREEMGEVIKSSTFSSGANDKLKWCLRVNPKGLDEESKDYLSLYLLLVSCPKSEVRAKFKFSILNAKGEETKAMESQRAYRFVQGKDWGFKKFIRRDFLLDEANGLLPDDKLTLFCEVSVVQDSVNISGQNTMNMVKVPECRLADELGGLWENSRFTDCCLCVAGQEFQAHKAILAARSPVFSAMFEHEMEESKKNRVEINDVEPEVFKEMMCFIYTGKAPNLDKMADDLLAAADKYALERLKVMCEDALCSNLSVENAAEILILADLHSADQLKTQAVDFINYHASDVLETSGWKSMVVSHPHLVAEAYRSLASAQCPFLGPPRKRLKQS

Row | Structure (SMILES) | Activity [1] | Activity [2] | also measured
1 | COc1cc2c(NC3CCN(CCCC(=O)NCCCCNC(=O)C[C@@H]4N=C(c5ccc(Cl)cc5)c5c(sc(C)c5C)-n5c(C)nnc54)CC3)cc(N3CCOCC3)nc2cc1OCCCN1CCCC1 | inactive | inactive | –
2 | COc1cc2c(NC3CCN(CCCC(=O)NCCCNC(=O)C[C@@H]4N=C(c5ccc(Cl)cc5)c5c(sc(C)c5C)-n5c(C)nnc54)CC3)cc(N3CCOCC3)nc2cc1OCCCN1CCCC1 | inactive | inactive | –
3 | COc1cc2c(NC3CCN(CCCC(=O)NCCCCCCCCCCNC(=O)C[C@@H]4N=C(c5ccc(NC(=O)CCOCCOCCOCCOCCOCCOCCNC(=O)CCCC[C@@H]6SC[C@@H]7NC(=O)N[C@@H]76)cc5)c5c(sc(C)c5C)-n5c(C)nnc54)CC3)cc(N3CCOCC3)nc2cc1OCCCN1CCCC1 | – | – | Activity (HEK293T): Active; Activity (HT-29 [3]): Active
4 | COc1cc2c(NC3CCN(CCCC(=O)NCCCCCCCCNC(=O)C[C@@H]4N=C(c5ccc(Cl)cc5)c5c(sc(C)c5C)-n5c(C)nnc54)CC3)cc(N3CCOCC3)nc2cc1OCCCN1CCCC1 | Active | inactive | –
5 | COc1cc2c(NC3CCN(CCCC(=O)NCCCCCNC(=O)C[C@@H]4N=C(c5ccc(Cl)cc5)c5c(sc(C)c5C)-n5c(C)nnc54)CC3)cc(N3CCOCC3)nc2cc1OCCCN1CCCC1 | inactive | inactive | –
6 | COc1cc2c(NC3CCN(CCCC(=O)NCCCCCCNC(=O)C[C@@H]4N=C(c5ccc(Cl)cc5)c5c(sc(C)c5C)-n5c(C)nnc54)CC3)cc(N3CCOCC3)nc2cc1OCCCN1CCCC1 | inactive | inactive | –
7 | COc1cc2c(NC3CCN(CCCC(=O)NCCCCCCCCCNC(=O)C[C@@H]4N=C(c5ccc(Cl)cc5)c5c(sc(C)c5C)-n5c(C)nnc54)CC3)cc(N3CCOCC3)nc2cc1OCCCN1CCCC1 | Active | inactive | –
8 | COc1cc2c(NC3CCN(CCCC(=O)NCCCCCCCNC(=O)C[C@@H]4N=C(c5ccc(Cl)cc5)c5c(sc(C)c5C)-n5c(C)nnc54)CC3)cc(N3CCOCC3)nc2cc1OCCCN1CCCC1 | inactive | inactive | –
9 | COc1cc2c(NC3CCN(CCCC(=O)NCCCCCCCCCCNC(=O)C[C@H]4N=C(c5ccc(Cl)cc5)c5c(sc(C)c5C)-n5c(C)nnc54)CC3)cc(N3CCOCC3)nc2cc1OCCCN1CCCC1 | – | – | Activity (HT-29 [4]): inactive; Activity (HT-29 [5]): inactive; Activity (HT-29 [6]): inactive; Activity [7]: inactive; Activity (HT-29 [8]): inactive; Activity (HT-29 [9]): inactive; Activity (HT-29 [10]): inactive
10 | COc1cc2c(NC3CCN(CCCC(=O)NCCNC(=O)C[C@@H]4N=C(c5ccc(Cl)cc5)c5c(sc(C)c5C)-n5c(C)nnc54)CC3)cc(N3CCOCC3)nc2cc1OCCCN1CCCC1 | inactive | inactive | –
11 | COc1cc2c(N(C)C3CCN(CCCC(=O)NCCCCCCCCCCNC(=O)C[C@@H]4N=C(c5ccc(Cl)cc5)c5c(sc(C)c5C)-n5c(C)nnc54)CC3)cc(N3CCOCC3)nc2cc1OCCCN1CCCC1 | – | – | Activity (HT-29 [4]): inactive; Activity (HT-29 [5]): inactive; Activity (HT-29 [6]): inactive; Activity [7]: inactive; Activity (HT-29 [8]): inactive; Activity (HT-29 [9]): inactive; Activity (HT-29 [10]): inactive
